What was measured:
[1] = molecular target: Acetylcholinesterase (Electrophorus electricus) (UniProt O42275); assay: Selectivity ratio of inhibition of acetylcholinesterase-AChE to that of inhibition of butyrylcholinesterase-BChE
Butyrylcholinesterase = Butyrylcholinesterase (Equus caballus, UniProt Q9N1N9); assay: Inhibitory activity against Butyrylcholinesterase
Acetylcholinesterase = Acetylcholinesterase (Electrophorus electricus, UniProt O42275); assay: Inhibitory activity against acetylcholinesterase
Acetylcholinesterase, sequence (O42275 whole entry): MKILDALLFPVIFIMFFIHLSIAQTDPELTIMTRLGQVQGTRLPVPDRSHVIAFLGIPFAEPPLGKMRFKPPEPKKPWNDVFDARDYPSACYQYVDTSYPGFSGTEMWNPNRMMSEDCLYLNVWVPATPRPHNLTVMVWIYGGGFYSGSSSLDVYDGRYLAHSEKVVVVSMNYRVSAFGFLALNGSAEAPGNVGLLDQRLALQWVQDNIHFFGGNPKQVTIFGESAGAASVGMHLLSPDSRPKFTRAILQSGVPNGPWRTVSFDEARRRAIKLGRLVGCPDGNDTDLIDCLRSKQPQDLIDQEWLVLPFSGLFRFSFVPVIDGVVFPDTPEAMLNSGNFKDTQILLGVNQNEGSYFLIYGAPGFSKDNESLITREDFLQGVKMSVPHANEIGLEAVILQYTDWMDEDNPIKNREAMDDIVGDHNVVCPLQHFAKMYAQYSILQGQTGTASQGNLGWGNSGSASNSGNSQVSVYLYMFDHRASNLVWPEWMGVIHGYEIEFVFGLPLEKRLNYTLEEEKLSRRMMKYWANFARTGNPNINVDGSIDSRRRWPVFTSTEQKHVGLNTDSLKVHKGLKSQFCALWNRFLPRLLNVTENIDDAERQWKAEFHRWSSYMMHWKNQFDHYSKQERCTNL

Butyrylcholinesterase, sequence (Q9N1N9 whole entry): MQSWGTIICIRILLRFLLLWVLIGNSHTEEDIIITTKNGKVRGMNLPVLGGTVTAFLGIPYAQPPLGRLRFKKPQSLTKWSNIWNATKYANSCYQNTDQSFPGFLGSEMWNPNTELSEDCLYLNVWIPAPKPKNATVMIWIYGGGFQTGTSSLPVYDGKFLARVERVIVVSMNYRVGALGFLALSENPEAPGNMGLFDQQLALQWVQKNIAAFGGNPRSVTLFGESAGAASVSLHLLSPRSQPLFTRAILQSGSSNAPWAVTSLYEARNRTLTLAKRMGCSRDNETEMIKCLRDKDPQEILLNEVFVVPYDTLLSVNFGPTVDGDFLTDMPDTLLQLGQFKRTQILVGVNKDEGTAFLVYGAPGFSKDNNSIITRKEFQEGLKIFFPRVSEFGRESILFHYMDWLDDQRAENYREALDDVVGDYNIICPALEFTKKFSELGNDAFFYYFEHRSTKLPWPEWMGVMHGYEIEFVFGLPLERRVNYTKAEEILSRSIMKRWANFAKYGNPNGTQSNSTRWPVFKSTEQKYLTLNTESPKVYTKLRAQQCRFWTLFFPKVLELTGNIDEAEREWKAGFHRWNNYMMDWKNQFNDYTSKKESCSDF
Acetylcholinesterase (Electrophorus electricus), sequence (O42275 24-633 limits assumed): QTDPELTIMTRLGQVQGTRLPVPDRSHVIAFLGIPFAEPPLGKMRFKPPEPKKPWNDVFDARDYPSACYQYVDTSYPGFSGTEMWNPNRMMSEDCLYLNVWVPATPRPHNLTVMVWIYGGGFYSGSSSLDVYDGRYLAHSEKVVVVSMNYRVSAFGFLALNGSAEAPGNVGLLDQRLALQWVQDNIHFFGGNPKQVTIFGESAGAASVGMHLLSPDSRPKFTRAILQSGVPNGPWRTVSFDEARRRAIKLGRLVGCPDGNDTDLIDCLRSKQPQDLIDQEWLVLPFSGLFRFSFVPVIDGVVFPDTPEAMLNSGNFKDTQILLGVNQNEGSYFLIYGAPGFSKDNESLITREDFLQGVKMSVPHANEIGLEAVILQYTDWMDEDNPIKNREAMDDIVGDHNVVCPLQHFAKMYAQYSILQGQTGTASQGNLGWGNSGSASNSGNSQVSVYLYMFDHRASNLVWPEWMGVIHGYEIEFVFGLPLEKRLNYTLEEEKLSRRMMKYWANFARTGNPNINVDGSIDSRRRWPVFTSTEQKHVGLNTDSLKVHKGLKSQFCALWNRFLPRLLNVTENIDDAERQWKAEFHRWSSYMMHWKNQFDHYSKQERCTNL

Structure (SMILES) | Ratio [1] | Ki (Butyrylcholinesterase) [nM] | Ki (Acetylcholinesterase) [nM]
Clc1ccccc1CNC1C2N(Cc3ccccc3Cl)C3C(N1Cc1ccccc1Cl)N(Cc1ccccc1Cl)C1(CC1N2Cc1ccccc1Cl)N3Cc1ccccc1Cl (centres undefined) | 3.9 | 10 | 39
c1cc2c(cc1CNC1C3N(Cc4ccc5c(c4)OCO5)C4C(N1Cc1ccc5c(c1)OCO5)N(Cc1ccc5c(c1)OCO5)C1(CC1N3Cc1ccc3c(c1)OCO3)N4Cc1ccc3c(c1)OCO3)OCO2 (centres undefined) | 1 | 310 | 320
COc1cc(CNC2C3N(Cc4cc(OC)cc(OC)c4)C4C(N2Cc2cc(OC)cc(OC)c2)N(Cc2cc(OC)cc(OC)c2)C2(CC2N3Cc2cc(OC)cc(OC)c2)N4Cc2cc(OC)cc(OC)c2)cc(OC)c1 (centres undefined) | 2.2 | 60 | 130

Reference: ChEMBL document CHEMBL1136182, “Cage amines as the stopper inhibitors of cholinesterases” (Bioorg Med Chem Lett, 2003)
